Test results: patent US10822664B2, “Sequence-specific detection and phenotype determination” (priority 2015, dated 2020)

What was measured:
[1] = system: E. coli 1289018, 1289023, 1289027, and 1289011; test: CRISPR/Cas9 cell-reporter AST assay; type: cell-based
Text: Enterobacteriaceae cell reporters as described in PCT/US2014/026536, Example 1 are designed with reporter plasmids that also carry single-guide[14] CRISPR/Cas9 systems with CRISPR loci that carry sequences targeting blaNDM-1 and blaSHV-18 genes (Table 1, SEQ ID NOs 11 & 13) a carbapenem resistance and extended β-lactam resistance gene, respectively. The reporter plasmid pGWP10001 is modified to include the cas9 gene, tracrRNA under the control of the PL(tetO-1) promoter, and a CRISPR cloning site, and CRISPR loci are designed to target the blaNDM-1 (SEQ ID NO 4) and blaSHV-18 (SEQ ID NO 5) genes and each are cloned into pGWP10001/CRISPR/Cas9 vectors to generate reporter plasmids that simultaneously target the blaNDM-1 and blaSHV-18 genes.
The vectors are used to generate non-replicative transduction particles carrying each plasmid and these are employed in a reporter system for determining the mechanism responsible to β-lactam non-susceptibility. Briefly, cultures of E. coli 1289018 (blaNDM-1, blaSHV-18-negative), 1289023 (blaNDM-1-positive), 1289027 (blaSHV-positive), and 1289011 (blaVIM-positive) are prepared and used to inoculate wells of a microwell plate containing 50 μL of LB with 50 μL of inoculum such that each well receives 10^4 CFU of each strain of bacteria. To these wells 100 μL of the following is added: a set of wells contain 5 μg/mL of meropenem and blaNDM-1-targetting NRTP, another set of wells contain 5 μg/mL of meropenem and blaSHV-18-NRTP, another set of wells contain 5 μg/mL of ceftazidime and blaNDM-1-targetting NRTP, and another set of wells contain 5 μg/mL of ceftazidime and blaSHV-18-NRTP. The samples are then incubated at 30° C. for 2 hours and then the samples are assayed for luminescence as described in Example 1.

[2] = system: E. coli 1289011, 1289012, 1289014, and 1289018; test: Peptide-PNA cell-reporter AST assay (Enterobacteriaceae reporter); type: cell-based
Description: In this example, the AST technique described in Example 2 is extended to AST testing based on cell-reporter assays. An Enterobacteriaceae cell reporter as described in PCT/US2014/026536, Example 1 is employed and the assay is run as follows. Briefly, cultures of E. coli 1289011, 1289012, 1289014, and 1289018 are prepared and used to inoculate wells of a microwell plate containing 50 μL of LB with 50 μL of inoculum such that each well receives 10^4 CFU of each strain of bacteria. A set of wells contain no additional additives, another set of wells contain 5 μg/mL of meropenem, another set of wells contain 5 μg/mL of meropenem and blaKPC-3-peptide-PNA, another set of wells contain 5 μg/mL of meropenem and blaNDM-1-peptide-PNA, and another two set of wells contain only blaKPC-3 or blaNDM-1 peptide-PNA, respectively. All wells also receive 100 μL of the Enterobacteriaceae reporter. The samples are then incubated at 30° C. for 2 hours and then the samples are assayed for luminescence as described in Example 1.

[3] = system: E. coli 1289011, 1289012, 1289014, and 1289018; test: AST meropenem/peptide-PNA disk diffusion testing; type: cell-based; conditions: for meropenem disk diffusion result: 10 μg meropenem disk, FIG. 4; for zone diameter compared to that of meropenem alone: 10 μg meropenem disk including peptide-PNA
Description: Disk diffusion testing is conducted following CLSI-M02 (12) and interpreted following M100-S22 (13). Briefly, for testing each bacterium for susceptibility to meropenem, a Mueller-Hinton agar (MHA) plates are inoculated using a sterile cotton swab dipped into a suspension of a culture of bacteria at a 0.5 McFarland standard such that the entire surface of the MHA is covered. A 10 μg meropenem disk is applied to the surface of the inoculated plate and the plate is incubated at 35° C. in ambient air for 16 to 18 hours. The strain of bacteria is determined to be susceptible to meropenem if the diameter of the zone of inhibition around the meropenem disk is ≥23 mm and resistant to meropenem if the zone diameter is ≤19 mm.
The second row of FIG. 4 depicts the typical meropenem disk diffusion results for the E. coli strains where 1289011, 1289012, and 1289014 are CRE and 1289018 is CSE.
To determine the specific mechanism linked to the meropenem-resistant phenotype, disk diffusion testing is conducted with 10 μg meropenem disks including blaKPC-3- and blaNDM-1-peptide-PNA. If the peptide-PNA inhibits the specific carbapenemase linked to the meropenem resistance in the E. coli strain, then the zone diameter observed will be […] when compared to the zone diameter of the strain when exposed to a disk containing only meropenem.

[4] = system: Enterococcus spp.; test: VRE cell-reporter assay (Enterococcus reporter); type: cell-based, E. faecalis, E. faecium, E. casseliflavus; conditions: 5 μg/mL vancomycin, FIG. 7 column 2
Description: In this example an Enterococcus cell reporter is employed in combination with vancomycin and antisense molecules targeting vanC-2 gene expression. The assay allows for the detection of VRE and discrimination from vancomycin-sensitive Enterococcus (VSE) and Enterococcus expressing the vanC-2 gene and not the vanA or vanB genes. The Enterococcus reporter is designed to cause Enterococcus spp. to produce a detectable signal. A Peptide-PNA is designed to target vanC-2 transcripts.
Briefly, cultures of VSE E. faecalis 1259012, vanA-positive VRE E. faecalis 1259016, VSE E. faecium 1269011, vanB-positive VRE E. faecium 1269014, and vanC-2-positive vancomycin non-susceptible E. casseliflavus 1279015 are prepared and used to inoculate wells of a microwell plate containing 50 μL of LB with 50 μL of inoculum such that each well receives 10^4 CFU of each strain of bacteria. A set of wells contains no additional additives, another set of wells contains 5 μg/mL of vancomycin, and another set of wells contains 5 μg/mL of vancomycin and vanC-2-peptide-PNA. All wells also receive 100 μL of the Enterococcus reporter. The samples are then incubated at 37° C. for 2 hours and then the samples are assayed for luminescence as described in Example 1.

[5] = system: E. coli; test: Enterobacteriaceae luminescent-reporter NRTP assay with murA PNA, E. coli; type: cell-based; conditions: murA PNA 4.5 μM, 30° C. for 2 hours, FIG. 3
Description: (§1) Isolates of E. coli and K. pneumoniae were grown overnight in LB at 37° C. and sub-cultured the next day at a 1:100 dilution into fresh LB and grown to an OD600 of 0.2. Inoculums of each strain of approximately 10^4 CFU of each species of bacteria were added to separate wells of a microplate each containing 50 μL of LB or LB with murA PNA at a final concentration of 4.5 μM. All wells subsequently received 100 uL of an Enterobacteriaceae luminescent-reporter non-replicative transduction particle as described in PCT/US2014/026536, Example 1 and the samples were incubated at 30° C. for 2 hours. After the incubation period, the plates were assayed for luminescence using a Molecular Devices SpectraMax L microplate luminometer in which a solution of tridecanal was injected into each well as luminescence readings were taken.

[6] = system: K. pneumoniae; test: Effect of murA PNA on growth (OD600) of K. pneumoniae; type: cell-based; conditions: murA PNA 4.5 μM in LB; OD600 over 8 hours; FIG. 2
Description: (§2) Isolates of E. coli and K. pneumoniae were grown overnight in LB at 37° C. and sub-cultured the next day at a 1:100 dilution into fresh LB and grown to an optical density at 600 nm (OD600) of 0.2. Inoculums of each strain of approximately 10^4 CFU of each species of bacteria were added to separate wells of a microplate each containing 50 μL of LB or LB with murA PNA at a final concentration of 4.5 μM. OD600 readings were measured over a period of 8 hours to assess growth of PNA-treated and PNA-untreated cells.

[7] = system: K. pneumoniae; test: Enterobacteriaceae luminescent-reporter NRTP assay with murA PNA, K. pneumoniae; type: cell-based; conditions: murA PNA 4.5 μM, 30° C. for 2 hours, FIG. 3
Description: as §1

[8] = system: E. coli; test: Effect of murA PNA on growth (OD600) of E. coli; type: cell-based; conditions: murA PNA 4.5 μM in LB; OD600 over 8 hours; FIG. 1
Description: as §2

[9] = E. coli 1289018, 5 μg/mL β-lactam, regardless of which NRTP, FIG. 6 row 1
[10] = E. coli 1289011, 5 μg/mL meropenem and peptide-PNA
[11] = E. coli 1289012, 5 μg/mL meropenem and peptide-PNA
[12] = E. coli 1289014, 5 μg/mL meropenem and peptide-PNA

Compound	inhibition in reporter assay [1, 9]	reporter assay signal [2, 10]	reporter assay signal [2, 11]	reporter assay signal [2, 12]	zone diameter compared to that of meropenem alone ([3]; E. coli 1289011)	zone diameter compared to that of meropenem alone ([3]; E. coli 1289012)	zone diameter compared to that of meropenem alone ([3]; E. coli 1289014)	also measured
CC(C)(O/N=C(\C(=O)N[C@@H]1C(=O)N2C(C(=O)[O-])=C(C[n+]3ccccc3)CS[C@H]12)c1csc(N)n1)C(=O)O [ceftazidime]	inhibited							
C[C@@H](O)[C@H]1C(=O)N2C(C(=O)O)=C(S[C@@H]3CN[C@H](C(=O)N(C)C)C3)[C@H](C)[C@H]12 [meropenem, reference compound]	inhibited							reporter assay signal ([2]; 5 μg/mL meropenem, all E. coli strains except 1289018, FIG. 5 column 2): continue to give a positive signal; meropenem disk diffusion result ([3]; E. coli 1289011): CRE; meropenem disk diffusion result ([3]; E. coli 1289012): CRE; meropenem disk diffusion result ([3]; E. coli 1289014): CRE; meropenem disk diffusion result ([3]; E. coli 1289018): CSE; inhibition in reporter assay ([1]; E. coli 1289027 (blaSHV-positive), 5 μg/mL meropenem, FIG. 6 row 3): inhibited
CN[C@H](CC(C)C)C(=O)N[C@H]1C(=O)N[C@@H](CC(N)=O)C(=O)N[C@H]2C(=O)N[C@H]3C(=O)N[C@H](C(=O)N[C@H](C(=O)O)c4cc(O)cc(O)c4-c4cc3ccc4O)[C@H](O)c3ccc(c(Cl)c3)Oc3cc2cc(c3O[C@@H]2O[C@H](CO)[C@@H](O)[C@H](O)[C@H]2O[C@H]2C[C@](C)(N)[C@H](O)[C@H](C)O2)Oc2ccc(cc2Cl)[C@H]1O [vancomycin]								reporter assay signal ([4]; strains expressing a van gene): continue to give a positive signal; reporter assay signal ([4]; strains not carrying a van gene): do not
KFFKFFKFFK-eg-ccatttagtt (CCATTTAGTT; all peptide nucleic acid (PNA); further chemistry not fully specified) [murA PNA]								luminescence signal produced by E. coli [5]: compromised; growth of K. pneumoniae [6]: not compromised; luminescence signal produced by K. pneumoniae [7]: does not inhibit signal production; growth of E. coli [8]: compromised
blaKPC-3 peptide-PNA: PNA (SEQ ID NO 2) targeting the TIR of blaKPC-3, conjugated to the peptide KFFKFFKFFK (TCAACGATAT; all peptide nucleic acid (PNA); further chemistry not fully specified)		continues to produce a positive signal	no longer produces a positive signal	continues to produce a positive signal	not reduced	reduced	not reduced	
blaNDM-1 peptide-PNA: PNA (SEQ ID NO 3) targeting the TIR of blaNDM-1, conjugated to the peptide KFFKFFKFFK (TCAAGTTTTCC; all peptide nucleic acid (PNA); further chemistry not fully specified)		continues to produce a positive signal	continues to produce a positive signal	no longer produces a positive signal	not reduced	not reduced	reduced	
